The values below come from patent US20250163104A1, “MACROCYCLIC IMMUNOMODULATORS” (priority 2021, published 2025).

This test addresses T1, human PD-1 / PD-L1-Ig binding on Jurkat cell line over-expressing human PD-1 (Jurkat-PD-1) (Homo sapiens, UniProt Q15116).
T1 construct: expressed in transfected cells; host or cells: Jurkat
The test is described as follows: Jurkat-PD-1 Cell Binding High-Content Screening Assay (CBA). Type of test: cell-based. As to conditions: PE-labeled PD-L1-Ig 20 nM final. An outline of the steps:
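PE-PD-L1-Ig 20 nM final; cells in DMEM/10% FCS; cpd pre-incubation 2 h, 37° C; ligand 1 h; PFA fix + Hoechst 33342; high-content imaging read-out.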

Where [1] appears, read: Jurkat-PD-1 cells, read-out: Jurkat HPD1_PDL1 IC50.

Like-named read-outs stand apart in the source and are kept apart here. Where a SMILES comes first, the peptide text is derived from it. Bridges are numbered along the chain shown (N, C = ends). [ ]: non-standard residue; d: D form. The star is where a group is joined. ξ: configuration not given here. Phe(4-COOH) = N[C@@H](Cc1ccc(C(=O)O)cc1)C(=O)O; Bip = N[C@@H](Cc1ccc(-c2ccccc2)cc1)C(=O)O; Phe(3-Me) = Cc1cccc(C[C@H](N)C(=O)O)c1; Val(3-OH) = CC(C)(O)[C@H](N)C(=O)O; Aha = [N-]=[N+]=NCC[C@H](N)C(=O)O; 4Pal = N[C@@H](Cc1ccncc1)C(=O)O; Cha = N[C@@H](CC1CCCCC1)C(=O)O; Cit = NC(=O)NCCC[C@H](N)C(=O)O; Ile(3ξ) = CCC(C)[C@H](N)C(=O)O; Thr(3ξ) = CC(O)[C@H](N)C(=O)O; Carboxymethyl = O=C(O)C*; NMeA = CN[C@@H](C)C(=O)O; Nle = CCCC[C@H](N)C(=O)O; Orn = NCCC[C@H](N)C(=O)O; Pra = C#CC[C@H](N)C(=O)O; dDap = NC[C@@H](N)C(=O)O; Dab = NCC[C@H](N)C(=O)O; Dap = NC[C@H](N)C(=O)O; ξPra = C#CCC(N)C(=O)O

T1 sequence (Q15116 25-288): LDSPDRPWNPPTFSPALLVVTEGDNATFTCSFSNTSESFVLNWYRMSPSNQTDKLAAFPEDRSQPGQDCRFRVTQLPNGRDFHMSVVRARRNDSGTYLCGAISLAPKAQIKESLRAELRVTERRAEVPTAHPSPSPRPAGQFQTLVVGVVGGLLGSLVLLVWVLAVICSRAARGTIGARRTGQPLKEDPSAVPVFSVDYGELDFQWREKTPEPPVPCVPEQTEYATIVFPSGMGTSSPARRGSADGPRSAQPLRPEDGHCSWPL

`CC(C)C[C@H]1NC(=O)[C@H](CCCN)NC(=O)[C@H](CCC(=O)O)NC(=O)[C@H](Cc2ccc(-c3ccccc3)cc2)NC(=O)[C@H](C(C)C)NC(=O)[C@H](Cc2c[nH]c3ccccc23)NC(=O)[C@H](CC(=O)O)NC(=O)[C@H](Cc2ccc(OCC(=O)O)cc2)NC(=O)[C@H](CN)NC(=O)CSC[C@@H](C(=O)N[C@@H](C)C(N)=O)NC(=O)[C@H]([C@@H](C)O)NC(=O)[C@H](C(C)C)NC(=O)[C@H](Cc2cccc3ccccc23)NC(=O)[C@H](CCN)NC1=O` [Compound 1474]: under setting [1], the IC50 (as a rule, the point on the concentration scale where inhibition reaches its midpoint) was found to be 68.6 nM.
Still for that read-out and setting: in the case of `CC(C)C[C@@H]1NC(=O)[C@H](CCN)NC(=O)[C@@H](CC(C)C)NC(=O)[C@H](CCN)NC(=O)[C@H](CCCNC(N)=O)NC(=O)[C@H](Cc2ccc(-c3ccccc3)cc2)NC(=O)[C@H](C(C)C)NC(=O)[C@H](Cc2c[nH]c3ccccc23)NC(=O)[C@H](CC(=O)O)NC(=O)[C@H](Cc2ccc(O)cc2)NC(=O)[C@H](CC(N)=O)NC(=O)CSC[C@@H](C(=O)NCC(N)=O)NC(=O)[C@H]([C@@H](C)O)NC(=O)[C@H](C(C)C)NC1=O` [Compound 1117] ({CH2CO}-NYDWV[Bip][Cit][Dab][dL][Dab]LVTCG-NH2; thioether N-14) it was 39.3 nM; in that of `CC(C)C[C@H]1NC(=O)[C@H](CCCN)NC(=O)[C@H](CCCNC(N)=O)NC(=O)[C@H](Cc2ccc(-c3ccccc3)cc2)NC(=O)[C@H](C(C)C)NC(=O)[C@H](Cc2c[nH]c3ccccc23)NC(=O)[C@H](CC(=O)O)NC(=O)[C@H](Cc2ccc(O)c([N+](=O)[O-])c2)NC(=O)[C@H](CN)NC(=O)CSC[C@@H](C(=O)N[C@@H](C)C(N)=O)NC(=O)[C@H]([C@@H](C)O)NC(=O)[C@H](C(C)C)NC(=O)[C@H](CC2CCCCC2)NC(=O)[C@H](CCN)NC1=O` [Compound 2113], 14.9 nM; in that of `CC(C)C[C@@H]1NC(=O)[C@H](Cc2c[nH]c3ccccc23)NC(=O)[C@H](CC(=O)O)NC(=O)[C@H](Cc2ccc(O)cc2)NC(=O)[C@H](Cc2ccccc2)NC(=O)CSC[C@@H](C(=O)N[C@@H](C)C(N)=O)NC(=O)[C@H](CO)NC(=O)[C@H](C(C)C)NC(=O)[C@H](CC(C)C)NC(=O)[C@H](CC(N)=O)NC(=O)[C@@H](C)NC(=O)[C@H](CN)NC(=O)[C@H](C(C)C)NC(=O)[C@H](Cc2ccc(-c3ccccc3)cc2)NC1=O` [Compound 1075] ({CH2CO}-FYDWL[Bip]V[Dap][dA]NLVSCA-NH2; thioether N-14), 50.1 nM.
On the same count and under the same terms, in the case of `C#CC[C@H](NC(=O)[C@@H]1CSCC(=O)N[C@@H](CN)C(=O)N[C@@H](CCN=[N+]=[N-])C(=O)N[C@@H](CC(=O)O)C(=O)N[C@@H](Cc2c[nH]c3ccccc23)C(=O)N[C@@H](C(C)C)C(=O)N[C@@H](Cc2ccc(-c3ccccc3)cc2)C(=O)N[C@@H](CCC(=O)O)C(=O)N[C@@H](CCCN)C(=O)N[C@H](CC(C)C)C(=O)N[C@@H](CCN)C(=O)N[C@@H](CC2CCCCC2)C(=O)N[C@@H](C(C)C)C(=O)N[C@@H]([C@@H](C)O)C(=O)N1)C(N)=O` [Compound 1540] ({CH2CO}-[Dap][Aha]DWV[Bip]E[Orn][dL][Dab][Cha]VTC[Pra]-NH2; thioether N-14) it was 87.4 nM; in that of `C#CC[C@H](NC(=O)[C@H](CCC(=O)O)NC(=O)[C@@H]1CSCC(=O)N[C@@H](CN)C(=O)N[C@@H](Cc2ccc(OCC(=O)O)cc2)C(=O)N[C@@H](CC(=O)O)C(=O)N[C@@H](Cc2cccc(C)c2)C(=O)N[C@@H](Cc2ccc(OCC(=O)O)cc2)C(=O)N[C@@H](Cc2ccc(-c3ccccc3)cc2)C(=O)N[C@@H](Cc2ccc(OCC(=O)O)cc2)C(=O)N[C@@H](CCCN)C(=O)N[C@H](CC(C)C)C(=O)N[C@@H](CCN)C(=O)N[C@@H](CC2CCCCC2)C(=O)N[C@@H](C(C)C)C(=O)N[C@@H]([C@@H](C)O)C(=O)N1)C(N)=O` [Compound 1803] ({CH2CO}-[Dap]Y(Carboxymethyl)D[Phe(3-Me)]Y(Carboxymethyl)[Bip]Y(Carboxymethyl)[Orn][dL][Dab][Cha]VTCE[Pra]-NH2; thioether N-14), 24.7 nM.
In the case of `Cc1cccc(C[C@@H]2NC(=O)[C@H](CC(=O)O)NC(=O)[C@H](Cc3ccc(C(=O)O)cc3)NC(=O)[C@H](C)N(C)C(=O)CSC[C@@H](C(=O)N[C@@H](CCN)C(N)=O)NC(=O)[C@H](CCC(=O)O)NC(=O)[C@H](C(C)(C)O)NC(=O)[C@H](CC3CCCCC3)NC(=O)[C@H](CCN)NC(=O)[C@@H](CC(C)C)NC(=O)[C@H](CCCN)NC(=O)[C@H](Cc3ccc(OCC(=O)O)cc3)NC(=O)[C@H](Cc3ccc(-c4ccccc4)cc3)NC(=O)[C@H](Cc3ccc(OCC(=O)O)cc3)NC2=O)c1` [Compound 2690] ({CH2CO}-[NMeA][Phe(4-COOH)]D[Phe(3-Me)]Y(Carboxymethyl)[Bip]Y(Carboxymethyl)[Orn][dL][Dab][Cha][Val(3-OH)]EC[Dab]-NH2; thioether N-14), the IC50 under setting [1] worked out at 481 nM.
With `Cc1cccc(C[C@@H]2NC(=O)[C@H](CC(=O)O)NC(=O)[C@H](Cc3ccc(OCC(=O)O)cc3)NC(=O)[C@H](Cc3ccc(OCC(=O)O)cc3)NC(=O)CSC[C@@H](C(=O)N[C@@H](C)C(N)=O)NC(=O)[C@H]([C@@H](C)O)NC(=O)[C@H](C(C)C)NC(=O)[C@H](CC3CCCCC3)NC(=O)[C@H](CCN)NC(=O)[C@@H](CC(C)C)NC(=O)[C@H](CCCN)NC(=O)[C@H](C(C)C)NC(=O)[C@H](Cc3ccc(-c4ccccc4)cc3)NC(=O)[C@H](C(C)C)NC2=O)c1` [Compound 1572], the IC50 under setting [1] amounted to 17.2 nM.
Still for that read-out and setting: then `CCCC[C@@H]1NC(=O)[C@H](Cc2ccc(-c3ccccc3)cc2)NC(=O)[C@H](C(C)C)NC(=O)[C@H](Cc2cccc(C)c2)NC(=O)[C@H](CC(=O)O)NC(=O)[C@H](Cc2ccc(C(=O)O)cc2)NC(=O)[C@H](Cc2ccncc2)NC(=O)CSC[C@@H](C(=O)N[C@@H](C)C(N)=O)NC(=O)[C@H]([C@@H](C)O)NC(=O)[C@H](C(C)C)NC(=O)[C@H](CC2CCCCC2)NC(=O)[C@H](CCN)NC(=O)[C@@H](CC(C)C)NC(=O)[C@H](CCCN)NC1=O` [Compound 1613], with 20.7 nM; and `C#CCC(NC(=O)[C@H](CN)NC(=O)[C@@H]1CSCC(=O)N[C@@H](Cc2ccncc2)C(=O)N[C@@H](Cc2ccc(OCC(=O)O)cc2)C(=O)N[C@@H](CC(=O)O)C(=O)N[C@@H](Cc2c[nH]c3ccccc23)C(=O)N[C@@H](C(C)C)C(=O)N[C@@H](Cc2ccc(-c3ccccc3)cc2)C(=O)N[C@@H]([C@@H](C)CC)C(=O)N[C@@H](CCCN)C(=O)N[C@H](CC(C)C)C(=O)N[C@@H](CCN)C(=O)N[C@@H](CC(C)C)C(=O)N[C@@H](C(C)C)C(=O)N[C@@H]([C@@H](C)O)C(=O)N1)C(N)=O` (stereo partly drawn) [Compound 1758] ({CH2CO}-[4Pal]Y(Carboxymethyl)DWV[Bip]I[Orn][dL][Dab]LVTC[Dap][ξPra]-NH2; thioether N-14), with 7.5 nM.
Regarding `Cc1cccc(C[C@@H]2NC(=O)[C@H](CC(=O)O)NC(=O)[C@H](Cc3ccc(C(=O)O)cc3)NC(=O)[C@H](CN)NC(=O)CSC[C@@H](C(=O)N[C@@H](CCN)C(N)=O)NC(=O)[C@@H](CN)NC(=O)[C@H](C(C)C)NC(=O)[C@H](CC3CCCCC3)NC(=O)[C@H](CCN)NC(=O)[C@@H](CC(C)C)NC(=O)[C@H](CCCN)NC(=O)[C@H](C(C)C)NC(=O)[C@H](Cc3ccc(-c4ccccc4)cc3)NC(=O)[C@H](C(C)C)NC2=O)c1` [Compound 2030] ({CH2CO}-[Dap][Phe(4-COOH)]D[Phe(3-Me)]V[Bip]V[Orn][dL][Dab][Cha]V[dDap]C[Dab]-NH2; thioether N-14), the IC50 under setting [1] stood at 14.7 nM.
The same measure, in the same setting: then `CCC[C@@H]1NC(=O)[C@H](Cc2ccc(-c3ccccc3)cc2)NC(=O)[C@H](C(C)C)NC(=O)[C@H](Cc2cccc(C)c2)NC(=O)[C@H](CC(=O)O)NC(=O)[C@H](Cc2ccc(C(=O)O)cc2)NC(=O)[C@H](Cc2ccncc2)NC(=O)CSC[C@@H](C(=O)N[C@@H](C)C(N)=O)NC(=O)[C@H]([C@@H](C)O)NC(=O)[C@H](C(C)C)NC(=O)[C@H](CC2CCCCC2)NC(=O)[C@H](CCN)NC(=O)[C@@H](CC(C)C)NC(=O)[C@H](CCCN)NC1=O` [Compound 1615], with 15.9 nM.
`CC[C@H](C)[C@@H]1NC(=O)[C@H](Cc2ccc(-c3ccccc3)cc2)NC(=O)[C@H](C(C)C)NC(=O)[C@H](Cc2cccc(Cl)c2)NC(=O)[C@H](CC(=O)O)NC(=O)[C@H](Cc2ccc(C(=O)O)cc2)NC(=O)[C@H](Cc2ccncc2)NC(=O)CSC[C@@H](C(=O)N[C@@H](C)C(N)=O)NC(=O)[C@H]([C@@H](C)O)NC(=O)[C@H](C(C)C)NC(=O)[C@H](CC2CCCCC2)NC(=O)[C@H](CCN)NC(=O)[C@@H](CC(C)C)NC(=O)[C@H](CCCN)NC1=O` [Compound 1558] gave an IC50 (Jurkat HPD1_PDL1 IC50, Jurkat-PD-1 cells) of 15.8 nM.
In the case of `CC(C)C[C@@H]1NC(=O)[C@H](CCN)NC(=O)[C@@H](CC(C)C)NC(=O)[C@H](C)NC(=O)[C@H](CCCNC(=N)N)NC(=O)[C@H](Cc2ccc(-c3ccccc3)cc2)NC(=O)[C@H](C(C)C)NC(=O)[C@H](Cc2c[nH]c3ccccc23)NC(=O)[C@H](CC(=O)O)NC(=O)[C@H](Cc2ccc(O)cc2)NC(=O)[C@H](CC(N)=O)NC(=O)CSC[C@@H](C(=O)N[C@@H](C)C(N)=O)NC(=O)[C@H]([C@@H](C)O)NC(=O)[C@H](C(C)C)NC1=O` [Compound 1001] ({CH2CO}-NYDWV[Bip]RA[dL][Dab]LVTCA-NH2; thioether N-14), under setting [1], the IC50 is 140 nM.
The same measure, in the same setting: then `CCCC[C@@H]1NC(=O)[C@H](Cc2c[nH]c3ccccc23)NC(=O)[C@H](CC(=O)O)NC(=O)[C@H](Cc2ccc(OCC(=O)O)cc2)NC(=O)[C@H](C(C)O)NC(=O)CSC[C@@H](C(=O)N[C@@H](CC(N)=O)C(=O)O)NC(=O)[C@H](CO)NC(=O)[C@H](C(C)C)NC(=O)[C@H](CC(C)C)NC(=O)[C@H](CCN)NC(=O)[C@@H](CC(C)C)NC(=O)[C@H](CCCN)NC(=O)[C@H](C(C)CC)NC(=O)[C@H](Cc2ccc(-c3ccccc3)cc2)NC1=O` (stereo partly drawn) [Compound 2571] ({CH2CO}-[Thr(3ξ)]Y(Carboxymethyl)DW[Nle][Bip][Ile(3ξ)][Orn][dL][Dab]LVSCN-OH; thioether N-14), with 26.1 nM.
